PMC5216056 (Nature Communications, 2017)
Values joined by “and” are separate entries in the source; they are usually repeats but may differ in a detail not shown here. Identical values can stand only once. Like-named read-outs stand apart in the source and are kept apart here.

Tests used:
Rat recombinant TRPV2 = biological target: T1, Rat recombinant TRPV2 (Rattus norvegicus, UniProt Q9WUD2); experiment: cell-based; assay type: cell-based; settings: for IC50: vs LPC 3μM, read-out: TRPV2 IC50 for antagonism or desensitization
T1 construct: expressed in transfected cells; host or cells: HEK293 (plasmid a gift from HB Bradshaw, Indiana University)
T1 sequence (Q9WUD2 1-761): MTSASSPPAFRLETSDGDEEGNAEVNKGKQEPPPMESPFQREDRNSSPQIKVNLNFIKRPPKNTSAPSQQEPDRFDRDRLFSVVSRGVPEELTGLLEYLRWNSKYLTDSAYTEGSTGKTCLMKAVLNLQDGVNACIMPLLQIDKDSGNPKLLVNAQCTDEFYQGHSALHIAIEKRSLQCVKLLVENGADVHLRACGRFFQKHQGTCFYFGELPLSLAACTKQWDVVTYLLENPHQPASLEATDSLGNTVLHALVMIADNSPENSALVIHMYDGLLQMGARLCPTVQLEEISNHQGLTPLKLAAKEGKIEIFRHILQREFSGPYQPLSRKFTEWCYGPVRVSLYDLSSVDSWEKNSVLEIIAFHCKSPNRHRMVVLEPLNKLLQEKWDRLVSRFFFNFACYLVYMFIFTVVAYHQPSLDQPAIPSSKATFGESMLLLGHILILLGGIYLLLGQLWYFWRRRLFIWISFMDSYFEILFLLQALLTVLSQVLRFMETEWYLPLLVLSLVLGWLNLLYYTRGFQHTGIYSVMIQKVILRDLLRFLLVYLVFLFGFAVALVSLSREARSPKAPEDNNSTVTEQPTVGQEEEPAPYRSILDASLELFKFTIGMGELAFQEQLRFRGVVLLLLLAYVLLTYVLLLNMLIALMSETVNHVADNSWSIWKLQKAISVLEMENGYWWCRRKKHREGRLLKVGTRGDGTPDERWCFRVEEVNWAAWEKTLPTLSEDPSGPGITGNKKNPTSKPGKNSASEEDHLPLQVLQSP

kappa (KOP) = biological target: T2, kappa (KOP) (Rattus norvegicus, UniProt P34975); experiment: CEREP panel; assay type: binding
T2 construct: CEREP (contract assay)

Rat recombinant TRPV3 = biological target: T3, Rat recombinant TRPV3 (Rattus norvegicus, UniProt Q4QYD9); experiment: cell-based; assay type: cell-based; settings: for IC50: vs thymol 100μM, read-out: TRPV3 IC50 for antagonism or desensitization; for EC50: read-out: TRPV3 Potency EC50
T3 construct: expressed in transfected cells; host or cells: HEK293 (TRPV3-HEK-293, gift from HB Bradshaw, Indiana University)
T3 sequence (Q4QYD9 1-791): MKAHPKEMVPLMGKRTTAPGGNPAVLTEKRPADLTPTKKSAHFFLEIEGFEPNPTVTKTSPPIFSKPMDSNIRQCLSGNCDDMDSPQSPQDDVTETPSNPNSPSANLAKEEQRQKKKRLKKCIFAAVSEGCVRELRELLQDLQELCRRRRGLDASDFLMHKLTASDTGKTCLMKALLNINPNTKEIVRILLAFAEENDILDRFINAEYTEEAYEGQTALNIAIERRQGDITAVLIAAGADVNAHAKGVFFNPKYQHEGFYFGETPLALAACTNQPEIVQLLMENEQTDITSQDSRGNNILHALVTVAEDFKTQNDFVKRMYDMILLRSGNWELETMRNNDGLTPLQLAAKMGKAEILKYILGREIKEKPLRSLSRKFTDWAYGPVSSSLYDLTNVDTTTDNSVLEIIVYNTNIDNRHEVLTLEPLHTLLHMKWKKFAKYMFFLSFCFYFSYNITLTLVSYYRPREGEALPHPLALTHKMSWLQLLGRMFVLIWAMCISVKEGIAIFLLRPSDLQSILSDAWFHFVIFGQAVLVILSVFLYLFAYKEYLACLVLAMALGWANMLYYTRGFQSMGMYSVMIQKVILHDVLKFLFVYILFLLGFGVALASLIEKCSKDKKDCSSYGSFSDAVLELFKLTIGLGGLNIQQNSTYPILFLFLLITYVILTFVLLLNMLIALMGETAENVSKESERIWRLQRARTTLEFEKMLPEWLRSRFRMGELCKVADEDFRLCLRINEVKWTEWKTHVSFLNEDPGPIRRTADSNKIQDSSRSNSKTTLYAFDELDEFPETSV

Rat recombinant TRPA1 = biological target: T4, Rat recombinant TRPA1 (Rattus norvegicus, UniProt Q6RI86); experiment: cell-based; assay type: cell-based; settings: for EC50: read-out: TRPA1 Potency EC50; for IC50: vs AITC 100μM, 5 min pre-incubation, read-out: TRPA1 IC50 for antagonism or desensitization
T4 construct: expressed in transfected cells

beta 1 (h) = biological target: T5, beta 1 (h) (Homo sapiens, UniProt P08588); experiment: biochemical; assay type: binding; settings: for inhibition at 10 µM: read-out: % inhibition beta 1 (h)
T5 construct: CEREP

hCB1R [1] = biological target: T6, hCB1R (Homo sapiens, UniProt P21554); experiment: cell-based; assay type: cell-based; settings: for Emax: read-out: Emax ± SEM β-AR recruitment hCB1R
T6 construct: host or cells: CHO

[2] = test system: AEA cellular uptake in U937 cells; experiment: cells; assay type: cell-based, human; settings: for AEA reuptake Efficacy (% inhibition) U937 cells: from dose-response
hCB1R [3] = biological target: T6, hCB1R; experiment: biochemical; assay type: biochemical; settings: for Emax: read-out: Emax ± SEM GTPγS hCB1R
hCB1R [4] = biological target: T6, hCB1R; experiment: cell-based; assay type: cell-based
BZD (central) = assay type: binding; settings: 10 µM
hCB1R [5] = biological target: T6, hCB1R; experiment: cell-based; settings: for Emax: read-out: Emax ± SEM cAMP hCB1R
AR (h) = experiment: CEREP panel; assay type: binding, human; settings: 10 µM
MT3 (ML2) = biological target: T7, MT3 (ML2) (Mesocricetus auratus, UniProt A0ABM2YAB8); experiment: CEREP panel; assay type: binding; settings: for inhibition at 10 µM: read-out: % inhibition MT3 (ML2)
T7 construct: CEREP (contract assay)
T7 sequence (A0ABM2YAB8 1-231): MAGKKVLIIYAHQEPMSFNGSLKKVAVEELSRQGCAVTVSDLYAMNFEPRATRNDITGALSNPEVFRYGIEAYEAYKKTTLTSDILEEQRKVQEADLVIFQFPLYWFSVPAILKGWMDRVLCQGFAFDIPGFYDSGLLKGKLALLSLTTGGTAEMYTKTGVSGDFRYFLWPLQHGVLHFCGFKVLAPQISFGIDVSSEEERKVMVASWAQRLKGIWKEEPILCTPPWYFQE

[6] = 1 μM
[7] = 1 μM; remark: listed apart in the source
[8] = Homo sapiens, U-937, read-out: AEA reuptake IC50 (95% CI) U937 cells
[9] = read-out: AEA reuptake IC50 (95% CI) U937 cells

T5 sequence (P08588 whole entry): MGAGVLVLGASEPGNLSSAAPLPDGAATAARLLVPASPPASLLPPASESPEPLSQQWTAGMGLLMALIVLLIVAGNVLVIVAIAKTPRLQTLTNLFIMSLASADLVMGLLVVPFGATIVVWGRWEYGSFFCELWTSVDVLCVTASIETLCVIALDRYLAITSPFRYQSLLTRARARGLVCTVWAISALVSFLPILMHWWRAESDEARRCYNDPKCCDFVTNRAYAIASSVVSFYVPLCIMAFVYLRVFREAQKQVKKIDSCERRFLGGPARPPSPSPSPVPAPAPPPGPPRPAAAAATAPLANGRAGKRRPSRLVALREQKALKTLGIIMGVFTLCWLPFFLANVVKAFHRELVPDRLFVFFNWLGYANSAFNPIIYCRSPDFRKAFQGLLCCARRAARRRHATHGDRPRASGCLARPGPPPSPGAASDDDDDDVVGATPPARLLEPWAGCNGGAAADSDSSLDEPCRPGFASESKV
T4 sequence (Q6RI86 whole entry): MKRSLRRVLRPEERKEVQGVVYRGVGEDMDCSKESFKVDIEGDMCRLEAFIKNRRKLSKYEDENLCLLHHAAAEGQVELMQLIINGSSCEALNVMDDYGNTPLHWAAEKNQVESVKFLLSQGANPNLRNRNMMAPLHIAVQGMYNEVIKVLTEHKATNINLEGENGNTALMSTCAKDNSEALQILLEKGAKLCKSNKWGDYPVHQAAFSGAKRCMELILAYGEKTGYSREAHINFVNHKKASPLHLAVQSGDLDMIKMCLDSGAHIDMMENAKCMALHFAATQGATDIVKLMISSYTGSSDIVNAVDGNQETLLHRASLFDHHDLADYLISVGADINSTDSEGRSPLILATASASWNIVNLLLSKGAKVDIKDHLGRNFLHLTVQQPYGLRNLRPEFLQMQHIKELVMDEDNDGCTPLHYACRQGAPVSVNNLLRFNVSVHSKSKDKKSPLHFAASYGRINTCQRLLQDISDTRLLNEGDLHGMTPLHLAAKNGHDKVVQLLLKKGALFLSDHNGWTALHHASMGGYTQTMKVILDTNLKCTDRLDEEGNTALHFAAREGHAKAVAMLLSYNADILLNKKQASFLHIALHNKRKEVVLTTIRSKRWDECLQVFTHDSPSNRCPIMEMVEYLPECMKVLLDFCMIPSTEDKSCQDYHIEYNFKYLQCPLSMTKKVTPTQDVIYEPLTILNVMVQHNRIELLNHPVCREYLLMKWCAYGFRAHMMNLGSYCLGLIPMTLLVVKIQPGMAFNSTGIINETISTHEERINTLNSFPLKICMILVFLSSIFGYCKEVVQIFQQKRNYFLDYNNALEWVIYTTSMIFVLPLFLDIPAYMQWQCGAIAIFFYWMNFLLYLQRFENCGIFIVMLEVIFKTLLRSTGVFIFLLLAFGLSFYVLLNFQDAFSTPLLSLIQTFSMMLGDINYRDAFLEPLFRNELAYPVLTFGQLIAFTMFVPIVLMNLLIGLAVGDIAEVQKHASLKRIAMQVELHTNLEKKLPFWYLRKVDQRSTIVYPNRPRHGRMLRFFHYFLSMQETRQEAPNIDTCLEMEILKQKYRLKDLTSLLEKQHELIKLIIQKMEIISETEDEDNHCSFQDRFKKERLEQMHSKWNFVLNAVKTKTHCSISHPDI
T6 sequence (P21554 whole entry): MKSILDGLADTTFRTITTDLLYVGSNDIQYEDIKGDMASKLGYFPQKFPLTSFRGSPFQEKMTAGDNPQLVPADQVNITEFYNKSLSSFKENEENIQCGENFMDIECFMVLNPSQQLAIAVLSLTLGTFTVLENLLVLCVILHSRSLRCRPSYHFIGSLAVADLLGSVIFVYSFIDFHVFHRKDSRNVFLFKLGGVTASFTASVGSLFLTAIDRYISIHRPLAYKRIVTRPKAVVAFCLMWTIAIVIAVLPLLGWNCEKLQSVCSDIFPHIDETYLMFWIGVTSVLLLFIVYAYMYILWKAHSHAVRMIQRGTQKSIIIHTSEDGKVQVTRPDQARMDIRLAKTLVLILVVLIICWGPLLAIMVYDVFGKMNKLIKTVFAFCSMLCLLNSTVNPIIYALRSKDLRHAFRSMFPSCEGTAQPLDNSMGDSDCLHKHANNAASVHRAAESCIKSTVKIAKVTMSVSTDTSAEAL
T2 sequence (P34975 whole entry): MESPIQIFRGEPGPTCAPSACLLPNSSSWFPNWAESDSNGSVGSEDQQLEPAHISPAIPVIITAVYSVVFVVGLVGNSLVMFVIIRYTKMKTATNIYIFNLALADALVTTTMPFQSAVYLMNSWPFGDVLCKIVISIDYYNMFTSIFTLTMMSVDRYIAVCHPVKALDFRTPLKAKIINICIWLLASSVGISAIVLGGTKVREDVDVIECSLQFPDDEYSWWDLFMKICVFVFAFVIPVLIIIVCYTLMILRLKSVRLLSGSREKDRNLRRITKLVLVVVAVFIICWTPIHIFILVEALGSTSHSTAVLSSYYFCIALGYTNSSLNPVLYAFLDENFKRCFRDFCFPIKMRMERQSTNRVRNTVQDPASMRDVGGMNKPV

Compound	TRPV2 Efficacy (% ionomycin 4μM) (Rat recombinant TRPV2) [%]	TRPV3 Efficacy (% ionomycin 4μM) (Rat recombinant TRPV3) [%]	TRPA1 Efficacy (%AITC 100μM) (Rat recombinant TRPA1)	% inhibition beta 1 (h) (beta 1 (h); 10 µM) [%]	IC50 (Rat recombinant TRPV2) [µM]	IC50 (Rat recombinant TRPV3) [µM]	EC50 (Rat recombinant TRPA1) [µM]	IC50 (Rat recombinant TRPA1) [µM]	AEA reuptake Efficacy (% inhibition) U937 cells [2] [%]	Emax (hCB1R [3]) [%]	% inhibition BZD (central) (BZD (central)) [%]	Emax ± SEM β-AR recruitment hCB1R (hCB1R [1])	% inhibition AR (h) (AR (h)) [%]	IC50 [2, 9] [µM]	Emax ± SEM GIRK hCB1R (hCB1R [4])	pEC50 ± SEM β-AR recruitment hCB1R (hCB1R [1])	EC50 (Rat recombinant TRPV3) [µM]	CL microsomes human [6] [µL/min/mg protein]	pEC50 ± SEM GIRK hCB1R (hCB1R [4])	pEC50 ± SEM cAMP hCB1R (hCB1R [5])	further results
Cc1c(C(=O)NN2CCCCC2)nn(-c2ccc(Cl)cc2Cl)c1-c1ccc(I)cc1 [AM251]	< 10	25.9	44.4%	25	–	–	–	–	–	–	–	–	–	–	–	–	–	–	–	–	% inhibition kappa (KOP) (kappa (KOP); 10 µM): 94%
CCCCCCC(C)(C)c1cc(OC)c([C@@H]2C=C(CO)[C@@H]3C[C@H]2C3(C)C)c(OC)c1 [HU308]	< 10	< 10	43.1%	–	> 100	> 100	18.5	> 100	62	17 ± 9	-26	–	–	–	–	–	–	–	–	–	EC50 (hCB1R [1]): > 10 µM; Emax (hCB1R [1]): 5 ± 1%; IC50 [2, 8]: 1.81 µM; inhibition at 10 µM (beta 1 (h)): -11%; EC50 (hCB1R [3]): > 10 µM; EC50 (hCB1R [4]): > 10 µM; Emax (hCB1R [4]; AtT20, read-out: Emax ± SEM GIRK hCB1R): 15 ± 10%; EC50 (hCB1R [5]; pEC50 ± SEM cAMP hCB1R): > 10 µM; Emax (hCB1R [5]): 18 ± 4%
SR144528	< 10	< 10	43.8%	41	–	–	–	–	–	–	-3	-82 ± 5	-12	> 10	9 ± 4	–	–	–	–	–	AEA reuptake % inhibition, effect at 10 µM, U937 cells ([2]; 10 µM (values marked *)): 30%; % inhibition MT3 (ML2) (MT3 (ML2); 10 µM): -21%
CCCCC/C=C\C/C=C\C/C=C\C/C=C\CCCC(=O)OC(CO)CO [2-AG, 2-arachidonoyl glycerol]	–	–	–	–	–	–	–	–	–	71 ± 20	–	–	–	–	–	–	–	–	–	–	Emax (hCB1R [4]; AtT20; read-out: Emax ± SEM GIRK hCB1R): 100 ± 11%; Emax (hCB1R [5]): < 70%
CN1CCCC[C@@H]1Cn1cc(C(=O)c2cc([N+](=O)[O-])ccc2I)c2ccccc21 [(R)-AM1241]	14.5	12.9	19.8%	–	35.5	> 50	19.5	> 50	77	–	–	26 ± 2	–	4.81	–	5.59 ± 0.13	10	304	5.00 ± 0.1	6.17 ± 0.12	EC50 (Rat recombinant TRPV2; read-out: TRPV2 Potency EC50): 12 µM; Emax ± SEM GTPγS hCB1R (hCB1R [3]): 47 ± 8; pEC50 ± SEM GTPγS hCB1R (hCB1R [3]): 6.78 ± 0.40; Emax ± SEM GIRK hCB1R (hCB1R [4]; normalized to CP55940): 51 ± 3%; Emax ± SEM cAMP hCB1R (hCB1R [5]): 54 ± 7
CCCC(C)(C)c1ccc2c(c1)OC(C)(C)[C@@H]1CC=C(C)C[C@@H]21 [JWH133]	< 10	< 10	76.8% and 77 ± 4% and 76.8±3.8%	-7	> 100	80.6	8.5 ± 2.3	20	–	–	-22	40 ± 7	–	–	5 ± 1	5.37 ± 0.05	–	38	< 5	< 5	CL hepatocytes human [7]: 5.6 µL/min/mio cells; Emax ± SEM GTPγS hCB1R (hCB1R [3]): 20%; pEC50 ± SEM GTPγS hCB1R (hCB1R [3]): 7.37 ± 0.16; Emax ± SEM cAMP hCB1R (hCB1R [5]): 37 ± 6
Cc1c(C(=O)NN2CCCCC2)nn(-c2ccc(Cl)cc2Cl)c1-c1ccc(Cl)cc1 [SR141716A]	< 10	38.9	67.3% and 67 ± 1%	–	> 100	3.4 ± 0.4	1.9	12.5	57	–	–	–	4	–	–	–	0.85	–	–	–	IC50 [2, 8]: 1.91 µM; inhibition at 10 µM (MT3 (ML2)): 4%
CN1CCCCC1Cn1cc(C(=O)c2cc([N+](=O)[O-])ccc2I)c2ccccc21 (racemic) [(rac)-AM1241]	–	–	–	–	–	–	–	–	–	–	–	6 ± 5	–	–	36 ± 4	< 5	–	111	< 5	< 5	Emax ± SEM GTPγS hCB1R (hCB1R [3]): 42 ± 6
CCCCCCC(C)(C)c1cc(OC)c(C2=C[C@H]3CC[C@]2(CO)C3(C)C)c(OC)c1 [HU910]	< 10	31.3	33.1%	-4	> 100	12.9	53.1	> 100	70	–	0	-97 ± 4	–	1.56	–	5.31 ± 0.06	0.12 ± 0.05	90	< 5	< 5	CL hepatocytes human [7]: 9.2 µL/min/mio cells; pEC50 ± SEM GTPγS hCB1R (hCB1R [3]): < 5; Emax ± SEM GIRK hCB1R (hCB1R [4]; normalized to CP55940): 7 ± 5%; Emax ± SEM cAMP hCB1R (hCB1R [5]): 28 ± 8
CCCCCCC(C)(C)c1ccc([C@@H]2C[C@H](O)CC[C@H]2CCCO)c(O)c1 [CP55940]	–	–	–	–	–	–	–	–	–	92 ± 5	-9	–	-28	–	–	–	–	–	–	–	inhibition at 10 µM (kappa (KOP)): 74%; Emax (hCB1R [1]): 94 ± 2%; inhibition at 10 µM (beta 1 (h); 10 µM): 14%; inhibition at 10 µM (MT3 (ML2)): 22%
